We go through 5 molecules from patent publication US10870639B2, “Pyrimidine compounds and pharmaceutical compositions for preventing or treating cancers including the same” (HANMI PHARM. CO., LTD., priority 2018, dated 2020).

One data set concerns the target VEGFR2 (KDR) (Homo sapiens (Human), UniProt P35968). The experiment in a line: z-LYTE kinase assay, VEGFR2. Format: biochemical. As to conditions: compound concentration 100 nM.
The target in a further data set is SYK (Homo sapiens (Human), UniProt P43405). The experiment in a line: z-LYTE kinase assay, SYK. It counts as biochemical. Conditions: compound concentration 100 nM. The protocol: The SYK inhibitory activity of the compounds was evaluated based on z-LYTE technology developed by Thermo Fisher Scientific Inc. According to this evaluation method, signals of the fluorescence of FRET-peptides are measured, wherein fluorescence of a FRET-peptide which is phosphorylated by the […] and fluorescence of a non-phosphorylated peptide are measured to identify an activity with respect to kinase. […] The background signal was measured in the absence of proteins; a non-inhibitory signal was measured only when the solvent (1% DMSO) was added; and an evaluation compound was used at a concentration of 100 nM to calculate the SYK inhibitory activity of the evaluation compound as a percentage (%).

The subject of the next data set is MOLM-13. The data set is described as follows: Cell growth inhibition (MTS), MOLM-13. Conditions: Homo sapiens, MOLM-13, 72 h, incubation three days. It counts as cell-based. As to the method:
(§1) The human acute myelogenous leukemia […] cell line MOLM-13 (DSMZ no. ACC 554) was incubated in RPM11640 medium supplemented with 20% heat-inactivated FBS at a temperature of 37° C. The incubated cell line was prepared in an amount of 2.0×10^4 cells/100 μL, and then plated on a 96-well plate. The RPMI1640 medium was serially diluted with the test compounds at a concentration in a range of 1 μM to 0.01 nM at a ratio of 1:10. Subsequently, incubation was performed thereon for three days. For the human acute myelogenous leukemia cell line MV-4-11 cell line (ATCC® CRL-9591™), the cells were incubated at a temperature of 37° C. in IMDM medium supplemented with 10% FBS. The incubated cell line was prepared in an amount of 2×10^4 cells/100 μL, and then plated on a 96-well plate. The IMDM medium was treated with cascade dilution of three test compounds at a concentration in a range of 1 μM to 0.01 nM at a rate of 1/10. Subsequently, incubation was performed thereon for three days. MTS test was performed to measure cell viability, and the growth inhibition (GI50) value of the cell line was calculated using GraphPad Prism software.

Another data set concerns MV-4-11. The data set is described as follows: Cell growth inhibition (MTS), MV-4-11. It counts as cell-based. Conditions: Homo sapiens, MV4-11, 72 h, incubation three days. The protocol: as §1
Data set [1] can be described thus: Microsomal stability, human liver microsomes. It counts as in vitro ADME. As to conditions: residual amount % after 1 hour, 37° C., 5 μM, 1 mg/ml microsomes, NADPH regenerating system. As to the method:
To confirm the reactivity of the test substances with intra-hepatic CYP450 enzymes, 5 μM test substances and 1 mg/ml human liver microsomes were incubated for 1 hour at a temperature of 37° C. in the presence of an NADPH regenerating system. After 1 hour, acetonitrile was added to terminate the reaction, and the supernatant obtained by centrifugation was analyzed by HPLC. The remaining amount % was calculated using the following equation using the value of the reacted sample for 1 hour relative to the value of the 0-minute sample as the peak value obtained as an analysis result. (Peak value of the sample reacted for 1 hour/peak value of the sample at 0 minutes)×100=residual amount %
(In general: Liver microsomes are a subcellular fraction often used to study metabolism.)

A short description of data set [2]: Microsomal stability, mice microsomes. Format: in vitro ADME. Conditions: residual amount % after 1 hour, 37° C., 5 μM, NADPH regenerating system.
A further data set addresses FLT3 ITD (Homo sapiens, UniProt P36888, ITD). The experiment in a line: LanthaScreen kinase binding assay, FLT3 ITD. (In general: TR-FRET usually uses a lanthanide donor and a delayed reading to cut background.)

By inhibition is commonly meant the drop in the measured response relative to a control, in per cent. Low readings indicate little suppression, high ones strong suppression. In general, GI50 refers to the concentration giving 50% growth inhibition. A high value points to less potent growth inhibition. By IC50 is commonly meant the concentration at which inhibition is half-maximal.

Chain of VEGFR2 (KDR) (P35968 20-1356): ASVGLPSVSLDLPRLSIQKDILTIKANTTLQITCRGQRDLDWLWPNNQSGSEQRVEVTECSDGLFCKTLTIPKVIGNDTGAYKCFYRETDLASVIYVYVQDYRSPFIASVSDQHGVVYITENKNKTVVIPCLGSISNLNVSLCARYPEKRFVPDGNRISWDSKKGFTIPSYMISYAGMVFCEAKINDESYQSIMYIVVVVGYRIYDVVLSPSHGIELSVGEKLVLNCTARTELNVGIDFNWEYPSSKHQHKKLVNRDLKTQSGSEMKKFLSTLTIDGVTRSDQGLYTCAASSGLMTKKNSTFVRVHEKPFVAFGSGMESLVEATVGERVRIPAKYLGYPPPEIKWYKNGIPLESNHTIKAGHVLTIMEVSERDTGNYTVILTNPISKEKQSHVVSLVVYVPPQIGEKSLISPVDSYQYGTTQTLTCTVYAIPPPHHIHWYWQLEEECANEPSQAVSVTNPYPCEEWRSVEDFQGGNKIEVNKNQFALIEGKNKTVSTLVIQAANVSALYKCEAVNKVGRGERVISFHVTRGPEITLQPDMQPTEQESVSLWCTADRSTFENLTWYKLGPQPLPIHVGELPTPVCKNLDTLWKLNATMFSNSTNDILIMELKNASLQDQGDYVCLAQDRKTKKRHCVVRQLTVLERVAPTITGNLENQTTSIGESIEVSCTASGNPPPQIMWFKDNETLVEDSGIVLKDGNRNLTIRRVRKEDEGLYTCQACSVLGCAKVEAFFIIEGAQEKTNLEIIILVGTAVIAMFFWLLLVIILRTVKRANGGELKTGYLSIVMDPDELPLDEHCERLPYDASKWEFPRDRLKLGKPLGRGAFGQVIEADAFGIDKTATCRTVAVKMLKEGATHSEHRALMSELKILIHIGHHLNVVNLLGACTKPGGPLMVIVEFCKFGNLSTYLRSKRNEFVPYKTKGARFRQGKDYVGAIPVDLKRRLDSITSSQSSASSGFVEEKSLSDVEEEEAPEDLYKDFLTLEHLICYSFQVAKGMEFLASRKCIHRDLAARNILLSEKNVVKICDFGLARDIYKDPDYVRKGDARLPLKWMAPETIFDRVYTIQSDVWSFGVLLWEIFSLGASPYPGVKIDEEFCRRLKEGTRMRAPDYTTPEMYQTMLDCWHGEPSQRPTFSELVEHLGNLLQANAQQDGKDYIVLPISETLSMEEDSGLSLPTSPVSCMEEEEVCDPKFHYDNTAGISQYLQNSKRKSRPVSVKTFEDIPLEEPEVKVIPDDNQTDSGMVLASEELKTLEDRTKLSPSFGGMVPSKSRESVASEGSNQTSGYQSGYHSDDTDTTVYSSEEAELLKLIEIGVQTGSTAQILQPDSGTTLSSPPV
Chain of FLT3 ITD (P36888 whole entry, looked up, stated change not applied): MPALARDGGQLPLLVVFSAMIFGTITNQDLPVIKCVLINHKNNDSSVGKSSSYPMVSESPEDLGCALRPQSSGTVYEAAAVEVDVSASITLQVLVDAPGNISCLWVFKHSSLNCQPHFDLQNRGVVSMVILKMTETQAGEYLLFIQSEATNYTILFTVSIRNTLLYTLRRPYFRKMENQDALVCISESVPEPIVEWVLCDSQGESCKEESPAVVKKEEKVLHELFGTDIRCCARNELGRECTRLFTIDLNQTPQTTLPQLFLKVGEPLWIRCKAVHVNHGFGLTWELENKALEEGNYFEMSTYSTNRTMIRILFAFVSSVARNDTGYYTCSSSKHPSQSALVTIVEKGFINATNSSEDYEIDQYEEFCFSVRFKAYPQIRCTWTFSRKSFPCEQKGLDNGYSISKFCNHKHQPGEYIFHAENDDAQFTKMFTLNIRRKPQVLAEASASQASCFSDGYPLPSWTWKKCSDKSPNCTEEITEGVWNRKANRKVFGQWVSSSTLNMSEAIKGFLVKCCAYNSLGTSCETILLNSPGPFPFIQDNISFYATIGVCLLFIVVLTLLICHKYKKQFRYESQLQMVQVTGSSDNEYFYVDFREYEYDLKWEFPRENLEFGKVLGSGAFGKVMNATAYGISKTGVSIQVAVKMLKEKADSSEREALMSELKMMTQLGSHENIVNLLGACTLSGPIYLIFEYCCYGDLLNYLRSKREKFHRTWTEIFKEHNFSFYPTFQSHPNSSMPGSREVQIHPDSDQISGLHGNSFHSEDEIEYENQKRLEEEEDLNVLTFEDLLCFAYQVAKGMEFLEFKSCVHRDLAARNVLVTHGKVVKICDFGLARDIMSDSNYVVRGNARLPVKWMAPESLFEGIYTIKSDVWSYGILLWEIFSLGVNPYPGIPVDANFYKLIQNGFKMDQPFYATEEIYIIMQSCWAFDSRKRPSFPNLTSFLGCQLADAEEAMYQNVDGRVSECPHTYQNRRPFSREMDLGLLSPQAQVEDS
Experimental for FLT3 ITD: The inhibitory activity of some of the compounds described above against FLT3-ITD, FLT3 wild type (WT), VEGFR2 (KDR), and SYK kinase was measured.
This experiment was carried out on a 384-well plate in conditions including 50 mM HEPES pH 7.5, 0.01% BRIJ-35, 10 mM MgCl2, 1 mM EGTA, and 1% DMSO.

`C[C@@H]1CN(Cc2cc(Nc3ncc(Cl)c(-c4c[nH]c5cc(F)ccc45)n3)cc(C3CC3)c2)C[C@H](C)N1` [Example 1, 5-chloro-N-(3-cyclopropyl-5-(((3R,5S)-3,5-dimethylpiperazine-1-yl)methyl)phenyl)-4-(6-fluoro-1H-indole-3-yl)pyrimidine-2-amine]: the results for the inhibition at 0.1 µM at VEGFR2 (KDR) and against SYK were 95% and 73%, respectively. For the same molecule, the concentration for 50% growth inhibition (GI50) in the data set on MOLM-13 amounted to 4 nM; in the data set on MV-4-11, 1.2 nM.

For the molecule `Cc1ccc2c(-c3nc(Nc4cc(CN5C[C@@H](C)NC6(CC6)C5)cc(C5CC5)c4)ncc3Cl)c[nH]c2c1` [Example 27, (R)-5-chloro-N-(3-cyclopropyl-5-((5-methyl-4,7-diazaspiro[2.5]octan-7-yl)methyl)phenyl)-4-(6-methyl-1H-indole-3-yl)pyrimidine-2-amine], the “Human microsomal stability (%)” value in data set [1] was 72%. In addition, in data set [2], the “Mice microsomal stability (%)” value was determined as 69%.

`Cc1ccc2c(-c3nc(Nc4cc(CN5C[C@@H](C)N[C@@H](C)C5)cc(C5CC5)c4)ncc3Cl)c[nH]c2c1` [Example 8, 5-chloro-N-(3-cyclopropyl-5-(((3R,5S)-3,5-dimethylpiperazine-1-yl)methyl)phenyl)-4-(6-methyl-1H-indole-3-yl)pyrimidine-2-amine]: the inhibition at 0.1 µM against VEGFR2 (KDR) came out at 100%; against SYK, 95%. The GI50 in the data set with MOLM-13 worked out at 5.2 nM; in the data set with MV-4-11 it was 1.3 nM.

With `Cc1ccc2c(-c3nc(Nc4cc(CN5C[C@@H](C)N(CCO)[C@@H](C)C5)cc(C5CC5)c4)ncc3Cl)c[nH]c2c1` [Example 5, 2-((2R,6S)-4-(3-((5-chloro-4-(6-methyl-1H-indole-3-yl)pyrimidine-2-yl)amino)-5-cyclopropylbenzyl)-2,6-dimethylpiperazine-1-yl)ethane-1-ol], the inhibition at 0.1 µM against VEGFR2 (KDR) is 71%; on SYK, 78%. The GI50 in the data set with MOLM-13 was found to be 0.8 nM; in the data set on MV-4-11 it was 0.5 nM. This molecule also came in with an IC50 at FLT3 ITD of 7.2 nM.

Take `CCN(CC)C1CCN(c2cc(Nc3ncc(Cl)c(-c4c[nH]c5cc(C)ccc45)n3)cc(C3CC3)c2)CC1` [Control Compound 6, reference compound]: the “Human microsomal stability (%)” value in data set [1] was found to be 49%. Moreover, in data set [2], the “Mice microsomal stability (%)” value was 29%.
